From patent US20220306617A1, “SUBSTITUTED 1,3-PHENYL HETEROARYL DERIVATIVES AND THEIR USE IN THE TREATMENT OF DISEASE” (NOVARTIS AG, priority 2019, published 2022)
Counter-ions that a name gives are not always drawn.

Target: T1, abc isoform of human TMEM16A channel expressed in CHO cells (Homo sapiens, UniProt Q5XXA6, DEL476-501)
T1 construct: expressed in transfected cells; host or cells: CHO cells, doxycycline-inducible expression under Blasticidin/Zeocin selection
T1 sequence (Q5XXA6 with tags, fused parts or gaps isoform Q5XXA6-5 DEL539-564): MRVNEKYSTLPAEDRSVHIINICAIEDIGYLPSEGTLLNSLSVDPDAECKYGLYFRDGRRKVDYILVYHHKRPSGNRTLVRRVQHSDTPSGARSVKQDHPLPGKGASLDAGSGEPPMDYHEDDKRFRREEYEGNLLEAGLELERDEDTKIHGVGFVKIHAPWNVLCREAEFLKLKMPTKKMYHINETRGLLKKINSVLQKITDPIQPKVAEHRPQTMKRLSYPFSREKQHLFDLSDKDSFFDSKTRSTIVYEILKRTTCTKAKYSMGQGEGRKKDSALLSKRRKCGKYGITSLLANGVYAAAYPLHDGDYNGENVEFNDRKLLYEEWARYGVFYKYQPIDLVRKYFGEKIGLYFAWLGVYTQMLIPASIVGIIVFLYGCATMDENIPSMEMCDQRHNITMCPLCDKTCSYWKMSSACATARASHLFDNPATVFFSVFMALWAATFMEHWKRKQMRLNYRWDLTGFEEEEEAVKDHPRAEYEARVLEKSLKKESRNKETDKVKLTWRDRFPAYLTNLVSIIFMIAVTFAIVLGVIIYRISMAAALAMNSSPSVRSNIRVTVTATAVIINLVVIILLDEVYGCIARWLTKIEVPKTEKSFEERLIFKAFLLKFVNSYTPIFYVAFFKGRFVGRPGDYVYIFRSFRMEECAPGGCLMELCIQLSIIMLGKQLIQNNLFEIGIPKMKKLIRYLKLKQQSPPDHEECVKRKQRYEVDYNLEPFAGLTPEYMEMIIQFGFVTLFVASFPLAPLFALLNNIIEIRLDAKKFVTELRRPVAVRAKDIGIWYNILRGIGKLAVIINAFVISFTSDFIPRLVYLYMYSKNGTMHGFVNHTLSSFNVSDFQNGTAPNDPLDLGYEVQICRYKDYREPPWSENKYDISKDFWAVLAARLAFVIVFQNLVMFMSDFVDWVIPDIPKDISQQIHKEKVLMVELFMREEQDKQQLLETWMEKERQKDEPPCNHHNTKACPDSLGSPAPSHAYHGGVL
Assay: Automated patch clamping (QPatch) assay to measure TMEM16A activity in whole-cell
Format: cell-based
Settings: for EC50: CHO cells expressing human TMEM16A (abc), whole-cell automated patch clamp, Hill fit, read-out: TMEM16A QPATCH assay EC50 V3 EC50; for Emax: CHO, maximum current at highest dose relative to reference potentiator at maximal concentration (upper limit) and vehicle (lower limit), read-out: TMEM16A QPATCH assay EC50 V3 Assay Window (% TMEM16A max activation)
Experimental: Automated Patch Clamping Assay to Measure TMEM16A Activity in Whole-Cell
Chinese hamster ovary cells (CHO) cells expressing abc isoform of human TMEM16A channel (Ref) were grown in vented cell-culture flasks (Corning) containing cell culture medium (1×F-12 Ham, 10% FBS, 1% Penicillin-streptomycin, 5 μg/mL Blasticidin S HCl, 400 μg/mL Zeocin), maintained at 37° C. in an incubator with 5% C02, 95% 02 and 100% humidity. The cells were passaged every 2-3 days at 80-90% confluence by aspirating the cell culture medium, washing twice with 10 mL D-PBS then incubating with 4 mL Trypsin-EDTA for no longer than 5 minutes. Trypsin was neutralized with the addition of 32 mL growth medium to the cell suspension, the cells were counted using a viable-cell counter (Vi-CELL; Beckmann-Coulter) and new flasks were seeded at a cell density of 0.01, 0.02, or 0.05×10^6 cells per cm2 for 3, 2, or 1 day(s) growth, respectively. Cell suspension was diluted in the new 175 cm2 flask with 50 mL of growth medium. Doxycycline was used to induce the expression of TMEM16A channel protein and was added directly to the culture flask 18-24 hours in advance of assay at a final concentration of 1 μg/mL. Induced cells were washed with D-PBS and detached from their culture flasks by adding 10 mL of Detachin and incubating for 10 minutes. Once detached, 5 mL of QPatch assay medium (1×CHO-S-SFM II (Sigma), 25 mM HEPES) was added and the resultant cell suspension counted using the Vi-CELL viable cell counter. The optimal cell density for this QPatch assay is 2-5×1 06 cells/mL; re-adjusted as necessary with QPatch assay medium.
The ion channel activity of TMEM16A (abc) expressed in CHO cells was assed using an automated patch clamp system (Qpatch, Sophion). These systems use planar patch-clamp technology to enable high-resistance, continuous whole-cell recordings from multiple cells in parallel, whilst maintaining each individual cell as an isolated experiment. First, each well was primed with intracellular and extracellular solutions described below. Cells were spun down, washed and then resuspended using extracellular solution. Intracellular solution: 130 mM N-methyl-D-glucamine, 10 mM EGTA, 20 mM CaCl2, 1 mM MgCl2, 10 mM HEPES 10, 10 mM BAPTA, 99 mM Sucrose, 2 mM Mg-ATP, pH 7.3, 320 mOsm Extracellular solution: 130 mM N-methyl-D-glucamine, 10 mM EGTA, 20 mM CaCl2, 1 mM MgCl2, 10 mM HEPES 10, 10 mM BAPTA, 99 mM Sucrose, 2 mM Mg-ATP, pH 7.3, 320 mOsm. Resuspended cells were then added to each well and suction was applied from the intracellular side in order to position a cell on the chip aperture, form a high resistance (GO) seal and achieve a whole-cell recording configuration. Following successful whole cell access, cell membranes were maintained at a voltage of −70 mV until the voltage protocol is applied. From this voltage, membranes were depolarized to +70 mV for 1500 ms, and then hyperpolarized to […] before being depolarized again from −90 to +70 mV in a continuous ramp waveform. At the end of the ramp, the membrane voltage is stepped back to −70 mV until the next waveform was applied. Compounds were dissolved at 10 mM in 100% DMSO and then diluted into extracellular solution (0.3% DMSO final) to the desired final concentration. The assay lower and upper limit were defined as follow, average amplitude (nA) of the last 3 sweeps in the vehicle addition of each cell was considered the basal current (lower limit); the average maximum current response in 3 cells for a reference potentiator at maximal concentration (upper limit). Current values for each compound concentration were then plotted against […]. EC50 curves are fitted to concentration-response data using curve-fitting functions (Hill fit) within the QPatch software. Curve fitting is constrained between the lowest concentration (vehicle-only addition) and the highest current value measured within the concentration range. […]

CCC(CC)NC(=O)c1cnc(-c2cccc(-c3cc(C(=O)NC(C)(C4CC4)C(F)(F)F)n[nH]3)c2)o1 (centres unmarked) [Example 3.8, 2-(3-(3-((2-Cyclopropyl-1,1,1-Trifluoropropan-2-Yl)Carbamoyl)-1H-Pyrazol-5-Yl)Phenyl)-N-(Pentan-3-Yl)Oxazole-5-Carboxamide]
EC50: 0.05 µM
Emax: 99%

CCC(CC)NC(=O)c1cnc(-c2cccc(-c3cc(C(=O)N[C@@H](C)[C@H]4CCCO4)n[nH]3)c2)o1 (single isomer, unassigned) [3.0 (i)]
EC50: 0.49 µM
Emax: 92%

CCC(CC)NC(=O)c1cnc(-c2cccc(-c3cc(C(=O)NCCOC(C)C)n[nH]3)c2)o1 [Example 3.9, 2-(3-(3-((2-Isopropoxyethyl)Carbamoyl)-1H-Pyrazol-5-Yl)Phenyl)-N-(Pentan-3-Yl)Oxazole-5-Carboxamide]
EC50: 0.5 µM
Emax: 96%

CCC(CC)NC(=O)c1cnc(-c2cccc(-c3cc(C(=O)N[C@H](C)C4CC4)[nH]n3)c2)o1 [Example 3.56, (R)-2-(3-(5-((1-Cyclopropylethyl)Carbamoyl)-1H-Pyrazol-3-Yl)Phenyl)-N-(Pentan-3-Yl)Oxazole-5-Carboxamide]
EC50: 0.09 µM
Emax: 78%

CCOC(=O)[C@@H](NC(=O)c1cnc(-c2cccc(-c3cc(C(=O)N[C@@H](CC(C)C)C(=O)OC)n[nH]3)c2)o1)C(C)C [Example 2.1, (S)-Methyl 2-(5-(3-(5-(((S)-1-Ethoxy-3-Methyl-1-Oxobutan-2-yl)Carbamoyl)Oxazol-2-Yl)Phenyl)-1H-Pyrazole-3-Carboxamido)-4-Methylpentanoate]
EC50: 0.03 µM
Emax: 83%

CCOC(=O)[C@@H](NC(=O)c1cnc(-c2cccc(-c3nnc(C(=O)N[C@@H](C)C4CC4)[nH]3)c2)o1)C(C)C [Example 12.2, (S)-Ethyl 2-(2-(3-(5-(((S)-1-Cyclopropylethyl)Carbamoyl)-4H-1,2,4-Triazol-3-Yl)Phenyl)Oxazole-5-Carboxamido)-3-Methylbutanoate]
EC50: 0.05 µM
Emax: 112%

CCC(CC)NC(=O)c1cnc(-c2cccc(-c3cc(C(=O)NCc4ccccc4)n[nH]3)c2)o1 [Example 3.16, 2-(3-(3-(Benzylcarbamoyl)-1H-Pyrazol-5-Yl)Phenyl)-N-(Pentan-3-Yl)Oxazole-5-Carboxamide]
EC50: 0.14 µM
Emax: 67%

CCC(CC)NC(=O)c1cnc(-c2cccc(-c3cc(C(=O)N[C@@H](CC(C)C)C(=O)OC)n[nH]3)c2)o1 [Example 3.27, (S)-Methyl 4-Methyl-2-(5-(3-(5-(Pentan-3-Ylcarbamoyl)Oxazol-2-Yl)Phenyl)-1H-Pyrazole-3-Carboxamido)Pentanoate]
EC50: 0.01 µM
Emax: 87%

CCC(CC)NC(=O)c1cnc(-c2cccc(-c3cc(C(=O)NC(C)(C)c4ccccc4)n[nH]3)c2)o1 [Example 3.54, N-(Pentan-3-Yl)-2-(3-(3-((2-Phenylpropan-2-Yl)Carbamoyl)-1H-Pyrazol-5-Yl)Phenyl)Oxazole-5-Carboxamide]
EC50: 0.06 µM
Emax: 109%

CCOC(=O)[C@@H](NC(=O)c1nnc(-c2cccc(-c3ncc(C(=O)N[C@@H](C)C4CC4)o3)c2)[nH]1)C(C)C [Example 13.6, (S)-Ethyl 2-(5-(3-(5-(((S)-1-Cyclopropylethyl)Carbamoyl)Oxazol-2-Yl)Phenyl)-4H-1,2,4-Triazole-3-Carboxamido)-3-Methylbutanoate]
EC50: 0.37 µM
Emax: 97%

C[C@H](NC(=O)c1cnc(-c2cccc(-c3nnc(C(=O)NC(C4CC4)C4CC4)[nH]3)c2)o1)C1CC1 [Example 12.7, (S)-N-(1-Cyclopropylethyl)-2-(3-(5-((Dicyclopropylmethyl)Carbamoyl)-4H-1,2,4-Triazol-3-Yl)Phenyl)Oxazole-5-Carboxamide]
EC50: 0.02 µM
Emax: 91%

CCC(CC)NC(=O)c1cnc(-c2cccc(-c3cc(C(=O)N[C@@H](C)C4CC4)n[nH]3)c2)o1 [Example 3.25, (S)-2-(3-(3-((1-Cyclopropylethyl)Carbamoyl)-1H-Pyrazol-5-Yl)Phenyl)-N-(Pentan-3-Yl)Oxazole-5-Carboxamide]
EC50: 0.04 µM
Emax: 90%

CCC(CC)NC(=O)c1cnc(-c2cccc(-c3cc(C(=O)NC(C)(C)CCc4ccccc4)n[nH]3)c2)o1 [Example 3.39, 2-(3-(3-((2-Methyl-4-Phenylbutan-2-Yl)Carbamoyl)-1H-Pyrazol-5-yl)Phenyl)-N-(Pentan-3-Yl)Oxazole-5-Carboxamide]
EC50: 0.15 µM
Emax: 98%

COC(=O)[C@@H](NC(=O)c1cnc(-c2cccc(-c3nnc(C(=O)N[C@@H](C)C4CC4)[nH]3)c2)o1)C(C)(C)C [Example 12.10, (S)-Methyl 2-(2-(3-(5-(((S)-1-Cyclopropylethyl)Carbamoyl)-4H-1,2,4-Triazol-3-Yl)Phenyl)Oxazole-5-Carboxamido)-3,3-Dimethylbutanoate]
EC50: 0.19 µM
Emax: 92%

CCC(CC)NC(=O)c1cnc(-c2cccc(-c3cc(C(=O)N4CCC(C(=O)OC(C)(C)C)C4)n[nH]3)c2)o1 (centres unmarked) [Example 3.62, Tert-Butyl 1-(5-(3-(5-(Pentan-3-Ylcarbamoyl)Oxazol-2-Yl)Phenyl)-1H-Pyrazole-3-Carbonyl)Pyrrolidine-3-Carboxylate Trifluoroacetate]
EC50: 0.96 µM
Emax: 70%

CCC(CC)NC(=O)c1cnc(-c2cccc(-c3cc(C(=O)N[C@@H](C)C4CC4)n(C4COC4)n3)c2)o1 [Example 9.3, (S)-2-(3-(5-((1-Cyclopropylethyl)Carbamoyl)-1-(Oxetan-3-Yl)-1H-Pyrazol-3-Yl)Phenyl)-N-(Pentan-3-Yl)Oxazole-5-Carboxamide]
EC50: 0.4 µM
Emax: 143%
